Assay results published in PMC7795354, “Development of Radiogallium-Labeled Peptides for Platelet-Derived Growth Factor Receptor β (PDGFRβ) Imaging: Influence of Different Linkers” (Molecules, 2020).
Where “and” joins values, the source holds several entries; their conditions need not be identical. Identical values can stand only once. Like-named read-outs stand apart in the source and are kept apart here. Values belong to the compound of their own block, whether it stands above or below them. *1 amine or outer side, *2 acyl side, *3 side chain or, on linkers, in order; H or OH if unused. Where a SMILES comes first, the peptide text is derived from it. Where no end group is shown, it is not given here. [ ]: non-standard residue; d: D form. The star is where a group is joined. DOTA = O=C(O)CN1CCN(CC(=O)O)CCN(CC(=O)*)CCN(CC(=O)O)CC1; NH(CH2CH2O)4CH2CO = O=C(COCCOCCOCCOCCN[*:1])[*:2]; βAla = NCCC(=O)O

Key:
[1] = buffer
Description: (§3) Briefly, the solution of radiotracers (37 kBq/well, 50 µL) in a sealed tube containing 0.1 M PBS pH 7.4 (450 µL) was incubated at 37 °C for 24 h. At 3 and 24 h after incubation, the purity of radiotracers was analyzed by RP-HPLC. Meanwhile, for stability assay in murine plasma, radiotracers were mixed in murine plasma at a ratio of 1:10. After incubation at 37 °C for 10 min and 1 h, an equivalent amount of ice-cold acetonitrile was added. After centrifugation at 1000× g at 4 °C for 10 min, the supernatant was filtered through a 0.45-µm filter followed by analyzing using RP-HPLC as described above. Then, the radiochemical purities were determined.

[2] = mouse, 1 h
Description: as §3

[3] = in vitro; settings: mouse, plasma, In vitro stability in murine plasma, percentage of remained intact radiotracer
Description: as §3

[4] = physchem; settings: pH 7.4
Description: (§4) The octanol-water partition coefficients for radiotracers were determined via the assessment of their distribution in n-octanol and PBS (pH 7.4) using shake-flask method as described previously [48]. Radioactivity of each layer was measured using auto well gamma counter (n = 4).

[5] = In vitro stability in PBS pH 7.4; settings: 37 °C, 0.1 M PBS pH 7.4
Description: as §3

[6] = In vitro stability in murine plasma; settings: 37 °C
Description: as §3

[7] = Octanol-water partition coefficient (log P), shake-flask; settings: n-octanol/PBS, pH 7.4
Description: as §4

[8] = Biodistribution in BxPC3-luc tumor-bearing mice; assay type: in vivo, BALB/c nu/nu mice; settings: female, BALB/c nu/nu, mouse, iv, 74 kBq, total radioactivity, 1 h post-injection; for tissue uptake at 1 h: i.v.
Description: (§1) All animal handling procedures were approved by the Kanazawa University Animal Care Committee. Experiments with animals were conducted in accordance with the Guidelines for the Care and Use of Laboratory Animals of Kanazawa University. The animals were housed with free access to food and water at 23 °C with a 12 h light/dark schedule. Four-week-old female BALB/c nu/nu mice (12–17 g) were purchased from Japan SLC Inc. (Hamamatsu, Japan). The tumor-bearing model was prepared by subcutaneous inoculation of 1 × 10^7 BxPC3-luc cells into left shoulder of female BALB/c nu/nu mice. The biodistribution experiment was performed approximately 4–5 weeks post-inoculation.
(§2) A saline solution of [^67Ga]27 or [^67Ga]28 (74 kBq, 100 µL) was injected intravenously into the tail vein of the mice. The mice were sacrificed at 10 min post-injection for [^67Ga]27 and 1 h post-injection for [^67Ga]27 or [^67Ga]28. For in vivo blocking studies, 100 μL of a mixed saline solution of [^67Ga]27 (74 kBq) and IPLPPPRRPFFK peptide (1 mg/mouse) was injected via tile vein into the tumor-bearing mice. The mice were sacrificed at 1 h post-injection. Tissues of interest were removed and weighed. The radioactivity of the tissues was determined using an auto well gamma counter, and counts were corrected for background radiation and physical decay during counting. The data were expressed as percent injected dose per gram tissue (%ID/g).

[9] = tested on: BxPC3-luc tumor-bearing mice; assay: Biodistribution in BxPC3-luc tumor-bearing mice; assay type: in vivo, BALB/c nu/nu mice; settings: 1 h post-injection, i.v.
Description: as §1, §2

[10] = Biodistribution in BxPC3-luc tumor-bearing mice; assay type: in vivo; settings: female, BALB/c nu/nu, mouse, stomach, iv, 74 kBq, total radioactivity; 1 h post-injection
[11] = tested on: PDGFRβ; settings: cited from earlier work
[12] = mouse, plasma, In vitro stability in murine plasma, percentage of remained intact radiotracer, 1 h

In vitro stability in PBS pH 7.4, percentage of remained intact radiotracer ([1]; 3 h): 95.3 ± 2.7%
In vitro stability in PBS pH 7.4, percentage of remained intact radiotracer ([1]; 24 h): 94.1 ± 0.6%
In vitro stability in murine plasma, percentage of remained intact radiotracer [2]: 35.2 ± 1.7%
remaining at 1 h [3]: 35%
logP [4]: < -4
Compound: CC[C@H](C)[C@H](NC(=O)CN1CCN(CC(=O)O)CCN(CC(=O)O)CCN(CC(=O)O)CC1)C(=O)N1CCC[C@H]1C(=O)N[C@@H](CC(C)C)C(=O)N1CCC[C@H]1C(=O)N1CCC[C@H]1C(=O)N1CCC[C@H]1C(=O)N[C@@H](CCCNC(=N)N)C(=O)N[C@@H](CCCNC(=N)N)C(=O)N1CCC[C@H]1C(=O)N[C@@H](Cc1ccccc1)C(=O)N[C@@H](Cc1ccccc1)C(=O)N[C@@H](CCCCN)C(=O)O [[^67Ga]22, [^67Ga]Ga-DOTA-IPLPPPRRPFFK, metal not drawn] ({DOTA}-IPLPPPRRPFFK-OH)

In vitro stability in PBS pH 7.4, percentage of remained intact radiotracer ([5]; 3 h): 95.9 ± 0.7%
In vitro stability in PBS pH 7.4, percentage of remained intact radiotracer ([5]; 24 h): 94.0 ± 0.5%
remaining at 1 h [6, 12]: 15.7 ± 2.9%
logP [7]: < -4
Compound: CC[C@H](C)[C@H](NC(=O)[C@@H](C)NC(=O)[C@@H](C)NC(=O)[C@@H](C)NC(=O)CN1CCN(CC(=O)O)CCN(CC(=O)O)CCN(CC(=O)O)CC1)C(=O)N1CCC[C@H]1C(=O)N[C@@H](CC(C)C)C(=O)N1CCC[C@H]1C(=O)N1CCC[C@H]1C(=O)N1CCC[C@H]1C(=O)N[C@@H](CCCNC(=N)N)C(=O)N[C@@H](CCCNC(=N)N)C(=O)N1CCC[C@H]1C(=O)N[C@@H](Cc1ccccc1)C(=O)N[C@@H](Cc1ccccc1)C(=O)N[C@@H](CCCCN)C(=O)O [[^67Ga]23, [^67Ga]Ga-DOTA-aaa-IPLPPPRRPFFK, metal not drawn] ({DOTA}-[dA][dA][dA]IPLPPPRRPFFK-OH)

In vitro stability in PBS pH 7.4, percentage of remained intact radiotracer ([5]; 3 h): 96.3 ± 1.1%
In vitro stability in PBS pH 7.4, percentage of remained intact radiotracer ([5]; 24 h): 94.0 ± 0.5%
remaining at 1 h [6, 12]: 41.4 ± 2.5%
logP [7]: < -4
Compound: CC[C@H](C)[C@H](NC(=O)[C@@H](C)NC(=O)[C@@H](C)NC(=O)[C@@H](C)NC(=O)[C@@H](C)NC(=O)[C@@H](C)NC(=O)CN1CCN(CC(=O)O)CCN(CC(=O)O)CCN(CC(=O)O)CC1)C(=O)N1CCC[C@H]1C(=O)N[C@@H](CC(C)C)C(=O)N1CCC[C@H]1C(=O)N1CCC[C@H]1C(=O)N1CCC[C@H]1C(=O)N[C@@H](CCCNC(=N)N)C(=O)N[C@@H](CCCNC(=N)N)C(=O)N1CCC[C@H]1C(=O)N[C@@H](Cc1ccccc1)C(=O)N[C@@H](Cc1ccccc1)C(=O)N[C@@H](CCCCN)C(=O)O [[^67Ga]24, [^67Ga]Ga-DOTA-aaaaa-IPLPPPRRPFFK, metal not drawn] ({DOTA}-[dA][dA][dA][dA][dA]IPLPPPRRPFFK-OH)

In vitro stability in PBS pH 7.4, percentage of remained intact radiotracer ([5]; 3 h): 94.2 ± 1.7%
In vitro stability in PBS pH 7.4, percentage of remained intact radiotracer ([5]; 24 h): 93.0 ± 0.4%
remaining at 1 h [6, 12]: 26.2 ± 6.7%
logP [7]: < -4
Compound: CC[C@H](C)[C@H](NC(=O)CCNC(=O)CCNC(=O)CN1CCN(CC(=O)O)CCN(CC(=O)O)CCN(CC(=O)O)CC1)C(=O)N1CCC[C@H]1C(=O)N[C@@H](CC(C)C)C(=O)N1CCC[C@H]1C(=O)N1CCC[C@H]1C(=O)N1CCC[C@H]1C(=O)N[C@@H](CCCNC(=N)N)C(=O)N[C@@H](CCCNC(=N)N)C(=O)N1CCC[C@H]1C(=O)N[C@@H](Cc1ccccc1)C(=O)N[C@@H](Cc1ccccc1)C(=O)N[C@@H](CCCCN)C(=O)O [[^67Ga]25, [^67Ga]Ga-DOTA-ββ-IPLPPPRRPFFK, metal not drawn] ({DOTA-βAla-βAla}-IPLPPPRRPFFK-OH)

In vitro stability in PBS pH 7.4, percentage of remained intact radiotracer ([5]; 3 h): 96.9 ± 0.3%
In vitro stability in PBS pH 7.4, percentage of remained intact radiotracer ([5]; 24 h): 95.4 ± 0.2%
remaining at 1 h [6, 12]: 33.1 ± 5.7%
logP [7]: < -4
Compound: CC[C@H](C)[C@H](NC(=O)CCNC(=O)CCNC(=O)CCNC(=O)CCNC(=O)CN1CCN(CC(=O)O)CCN(CC(=O)O)CCN(CC(=O)O)CC1)C(=O)N1CCC[C@H]1C(=O)N[C@@H](CC(C)C)C(=O)N1CCC[C@H]1C(=O)N1CCC[C@H]1C(=O)N1CCC[C@H]1C(=O)N[C@@H](CCCNC(=N)N)C(=O)N[C@@H](CCCNC(=N)N)C(=O)N1CCC[C@H]1C(=O)N[C@@H](Cc1ccccc1)C(=O)N[C@@H](Cc1ccccc1)C(=O)N[C@@H](CCCCN)C(=O)O [[^67Ga]26, [^67Ga]Ga-DOTA-ββββ-IPLPPPRRPFFK, metal not drawn] ({DOTA-βAla-βAla-βAla-βAla}-IPLPPPRRPFFK-OH)

tissue uptake at 1 h ([8]; blood, read-out: Biodistribution, Blood): 0.12 %ID/g
tissue uptake at 1 h ([8]; bone, read-out: Biodistribution, Bone): 0.1 %ID/g
tissue uptake at 1 h ([8]; heart, read-out: Biodistribution, Heart): 0.03 %ID/g
tissue uptake at 1 h ([8]; BxPC3-luc tumor, read-out: Biodistribution, Tumor): 0.25 %ID/g
tissue uptake at 1 h ([8]; kidney, read-out: Biodistribution, Kidney): 2.96 %ID/g
tissue uptake at 1 h ([8]; large intestine, read-out: Biodistribution, Large intestine): 0.11 %ID/g
tissue uptake at 1 h ([8]; liver, read-out: Biodistribution, Liver): 0.2 %ID/g
tissue uptake at 1 h ([8]; lung, read-out: Biodistribution, Lung): 0.18 %ID/g
tissue uptake at 1 h ([8]; muscle, read-out: Biodistribution, Muscle): 0.03 %ID/g
tissue uptake at 1 h ([8]; pancreas, read-out: Biodistribution, Pancreas): 0.07 %ID/g
tissue uptake at 1 h ([8]; small intestine, read-out: Biodistribution, Small intestine): 0.34 %ID/g
tissue uptake at 1 h ([8]; spleen, read-out: Biodistribution, Spleen): 0.07 %ID/g
tissue to tissue ratio at 1 h ([8]; tumor/blood): 2.05
Biodistribution, Brain [9]: 0.00 (0.00) %injected dose/gram tissue
Tumor/Blood ratio [9]: 2.05 and 2.05 ± 0.77
tissue uptake dose at 1 h [10]: 0.01 %ID
In vitro stability in PBS pH 7.4, percentage of remained intact radiotracer ([5]; 3 h): 96.9 ± 0.2%
In vitro stability in PBS pH 7.4, percentage of remained intact radiotracer ([5]; 24 h): 94.3 ± 0.3%
In vitro stability in murine plasma, percentage of remained intact radiotracer ([6]; 1 h, 60 min): 80.1 ± 0.8%
remaining at 10 min ([6]; mouse, plasma, In vitro stability in murine plasma, percentage of remained intact radiotracer, 10 min): 96.2 ± 1.1%
remaining at 1 h [6, 12]: > 75%
logP [7]: < -4
Compound: CC[C@H](C)[C@H](NC(=O)COCCOCCOCCOCCNC(=O)CN1CCN(CC(=O)O)CCN(CC(=O)O)CCN(CC(=O)O)CC1)C(=O)N1CCC[C@H]1C(=O)N[C@@H](CC(C)C)C(=O)N1CCC[C@H]1C(=O)N1CCC[C@H]1C(=O)N1CCC[C@H]1C(=O)N[C@@H](CCCNC(=N)N)C(=O)N[C@@H](CCCNC(=N)N)C(=O)N1CCC[C@H]1C(=O)N[C@@H](Cc1ccccc1)C(=O)N[C@@H](Cc1ccccc1)C(=O)N[C@@H](CCCCN)C(=O)O [[^67Ga]28, [^67Ga]Ga-DOTA-EG4-IPLPPPRRPFFK, metal not drawn] ({DOTA}-[NH(CH2CH2O)4CH2CO]IPLPPPRRPFFK-OH)

Compound: IPLPPPRRPFFK
IC50 ([11]; affinity for PDGFRβ): 480 nM

Compound: IPLPPPSRPFFK [PDGFR-P1, linear dodecapeptide targeting PDGFRβ identified by biopanning]
IC50 ([11]; targeting PDGFRβ): 1400 nM

Compound: yIPLPPPRRPFFK ([dY]IPLPPPRRPFFK) [yG2, … with tyrosine at the N-terminal for radioiodination]
Affinity for the PDGFRβ relative to IPLPPPSRPFFKY (PDGFR-P1) ([11]; higher affinity): 16 times
